# Measurements reported in patent publication US20230085307A1, “PYRIDAZINONE COMPOUND AND HERBICIDE” (NISSAN CHEMICAL CORPORATION, priority 2019, published 2023).
# What was measured:
# late watergrass = experiment: Test Example 1: herbicidal activity, application before weed generation under submerged conditions (Table 16, symbol A); format: in vivo, late watergrass (Echinochloa oryzicola); settings: 320 g/ha applied herbicide
# Summary of the method: (§1)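 Alluvial soil was flooded to 4 cm depth, weed seeds were sown mixed and 2.5-leaf rice seedlings were transplanted. On sowing day, the compound's emulsion, diluted in water to a set dose, was applied to the water surface. Plants grew at 25–30 °C and were scored 0–5 after three weeks.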
# Japanese bulrush = experiment: Test Example 1: herbicidal activity, application before weed generation under submerged conditions (Table 16, symbol B); format: in vivo, Japanese bulrush (Schoenoplectus juncoides); settings: 320 g/ha applied herbicide
# Summary of the method: as §1
# oval-leafed pondweed = experiment: Test Example 1: herbicidal activity, application before weed generation under submerged conditions (Table 16, symbol C); format: in vivo, oval-leafed pondweed (Monochoria vaginalis); settings: 320 g/ha applied herbicide
# Summary of the method: as §1
# barnyard grass [1] = experiment: Test Example 3: herbicidal effect by foliage application, Wagner pot (Table 18, symbol H); format: in vivo, barnyard grass (Echinochloa crus-galli); settings: amount of applied herbicide 320 g/ha
# Summary of the method: (§2)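 Plants were sown in alluvial soil held under 0.1–0.5 cm standing water and grown 14 days in a greenhouse at 25–30 °C. An emulsifiable formulation, water-diluted to the set dose, was then sprayed onto the foliage, and effects were scored three weeks later using previously defined criteria.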
# Chinese sprangletop = experiment: Test Example 3: herbicidal effect by foliage application, Wagner pot (Table 18, symbol D); format: in vivo, chinese sprangletop (Leptochloa chinensis); settings: amount of applied herbicide 320 g/ha
# Summary of the method: as §2
# rice flat sedge = experiment: Test Example 3: herbicidal effect by foliage application, Wagner pot (Table 18, symbol E); format: in vivo, rice flat sedge (Cyperus iria); settings: amount of applied herbicide 320 g/ha
# Summary of the method: as §2
# southern crabgrass [2] = experiment: Test Example 4: herbicidal effect by soil treatment (Table 19, symbol F); format: in vivo, southern crabgrass (Digitaria ciliaris); settings: amount of applied herbicide 320 g/ha
# Summary of the method: (§3)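 Soil-surface application: an emulsion agent diluted with water to the predetermined dose is sprayed uniformly over seeds lying under roughly 1.5 cm of sterilized diluvial soil. Boxes stay in a greenhouse at 25° C. to 30° C. Three weeks later, each species is graded on previously defined criteria.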
# green foxtail [3] = experiment: Test Example 4: herbicidal effect by soil treatment (Table 19, symbol G); format: in vivo, green foxtail (Setaria viridis); settings: amount of applied herbicide 320 g/ha
# Summary of the method: as §3
# barnyard grass [4] = experiment: Test Example 4: herbicidal effect by soil treatment (Table 19, symbol H); format: in vivo, barnyard grass (Echinochloa crus-galli); settings: amount of applied herbicide 320 g/ha
# Summary of the method: as §3
# wild oat [5] = experiment: Test Example 4: herbicidal effect by soil treatment (Table 19, symbol I); format: in vivo, wild oat (Avena fatua); settings: amount of applied herbicide 320 g/ha
# Summary of the method: as §3
# blackgrass [6] = experiment: Test Example 4: herbicidal effect by soil treatment (Table 19, symbol J); format: in vivo, blackgrass (Alopecurus myosuroides); settings: amount of applied herbicide 320 g/ha
# Summary of the method: as §3
# Italian ryegrass [7] = experiment: Test Example 4: herbicidal effect by soil treatment (Table 19, symbol K); format: in vivo, Italian ryegrass (Lolium multiflorum); settings: amount of applied herbicide 320 g/ha
# Summary of the method: as §3
# windgrass [8] = experiment: Test Example 4: herbicidal effect by soil treatment (Table 19, symbol L); format: in vivo, windgrass (Apera spica-venti); settings: amount of applied herbicide 320 g/ha
# Summary of the method: as §3
# velvetleaf [9] = experiment: Test Example 4: herbicidal effect by soil treatment (Table 19, symbol M); format: in vivo, velvetleaf (Abutilon theophrasti); settings: amount of applied herbicide 320 g/ha
# Summary of the method: as §3
# redroot pigweed [10] = experiment: Test Example 4: herbicidal effect by soil treatment (Table 19, symbol N); format: in vivo, redroot pigweed (Amaranthus retroflexus); settings: amount of applied herbicide 320 g/ha
# Summary of the method: as §3
# lambsquarters [11] = experiment: Test Example 4: herbicidal effect by soil treatment (Table 19, symbol O); format: in vivo, lambsquarters (Chenopodium album); settings: amount of applied herbicide 320 g/ha
# Summary of the method: as §3
# chickweed [12] = experiment: Test Example 4: herbicidal effect by soil treatment (Table 19, symbol P); format: in vivo, common chickweed (Stellaria media); settings: amount of applied herbicide 320 g/ha
# Summary of the method: as §3
# persian speedwell [13] = experiment: Test Example 4: herbicidal effect by soil treatment (Table 19, symbol R); format: in vivo, Persian speedwell (Veronica persica); settings: amount of applied herbicide 320 g/ha
# Summary of the method: as §3
# southern crabgrass [14] = experiment: Test Example 5: herbicidal effect by foliage application, plastic box (Table 20, symbol F); format: in vivo, southern crabgrass (Digitaria ciliaris); settings: foliage application, 320 g/ha, evaluated three weeks after application
# Summary of the method: (§4)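 Sow seeds spot-wise in sterilized diluvial soil; cover with ~1.5 cm soil. Grow 14 days in greenhouse, 25° C. to 30° C. Spray foliage with emulsion diluted to predetermined amount. Rate effect after 3 weeks.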
# green foxtail [15] = experiment: Test Example 5: herbicidal effect by foliage application, plastic box (Table 20, symbol G); format: in vivo, green foxtail (Setaria viridis); settings: foliage application, 320 g/ha, evaluated three weeks after application
# Summary of the method: as §4
# barnyard grass [16] = experiment: Test Example 5: herbicidal effect by foliage application, plastic box (Table 20, symbol H); format: in vivo, barnyard grass (Echinochloa crus-galli); settings: foliage application, 320 g/ha, evaluated three weeks after application
# Summary of the method: as §4
# wild oat [17] = experiment: Test Example 5: herbicidal effect by foliage application, plastic box (Table 20, symbol I); format: in vivo, wild oat (Avena fatua); settings: foliage application, 320 g/ha, evaluated three weeks after application
# Summary of the method: as §4
# blackgrass [18] = experiment: Test Example 5: herbicidal effect by foliage application, plastic box (Table 20, symbol J); format: in vivo, blackgrass (Alopecurus myosuroides); settings: foliage application, 320 g/ha, evaluated three weeks after application
# Summary of the method: as §4
# Italian ryegrass [19] = experiment: Test Example 5: herbicidal effect by foliage application, plastic box (Table 20, symbol K); format: in vivo, Italian ryegrass (Lolium multiflorum); settings: foliage application, 320 g/ha, evaluated three weeks after application
# Summary of the method: as §4
# windgrass [20] = experiment: Test Example 5: herbicidal effect by foliage application, plastic box (Table 20, symbol L); format: in vivo, windgrass (Apera spica-venti); settings: foliage application, 320 g/ha, evaluated three weeks after application
# Summary of the method: as §4
# velvetleaf [21] = experiment: Test Example 5: herbicidal effect by foliage application, plastic box (Table 20, symbol M); format: in vivo, velvetleaf (Abutilon theophrasti); settings: foliage application, 320 g/ha, evaluated three weeks after application
# Summary of the method: as §4
# redroot pigweed [22] = experiment: Test Example 5: herbicidal effect by foliage application, plastic box (Table 20, symbol N); format: in vivo, redroot pigweed (Amaranthus retroflexus); settings: foliage application, 320 g/ha, evaluated three weeks after application
# Summary of the method: as §4
# lambsquarters [23] = experiment: Test Example 5: herbicidal effect by foliage application, plastic box (Table 20, symbol O); format: in vivo, lambsquarters (Chenopodium album); settings: foliage application, 320 g/ha, evaluated three weeks after application
# Summary of the method: as §4
# chickweed [24] = experiment: Test Example 5: herbicidal effect by foliage application, plastic box (Table 20, symbol P); format: in vivo, common chickweed (Stellaria media); settings: foliage application, 320 g/ha, evaluated three weeks after application
# Summary of the method: as §4
# persian speedwell [25] = experiment: Test Example 5: herbicidal effect by foliage application, plastic box (Table 20, symbol R); format: in vivo, Persian speedwell (Veronica persica); settings: foliage application, 320 g/ha, evaluated three weeks after application
# Summary of the method: as §4
Compound,Herbicidal effect on A: late watergrass (grade 0-5) (late watergrass),Herbicidal effect on B: Japanese bulrush (grade 0-5) (Japanese bulrush),Herbicidal effect on C: oval-leafed pondweed (grade 0-5) (oval-leafed pondweed),herbicidal effect on H: barnyard grass (barnyard grass [1]),herbicidal effect on D: Chinese sprangletop (Chinese sprangletop),herbicidal effect on E: rice flat sedge (rice flat sedge),"F: southern crabgrass, herbicidal effect rating (southern crabgrass [2])","G: green foxtail, herbicidal effect rating (green foxtail [3])","H: barnyard grass, herbicidal effect rating (barnyard grass [4])","I: wild oat, herbicidal effect rating (wild oat [5])","J: blackgrass, herbicidal effect rating (blackgrass [6])","K: Italian ryegrass, herbicidal effect rating (Italian ryegrass [7])","L: windgrass, herbicidal effect rating (windgrass [8])","M: velvetleaf, herbicidal effect rating (velvetleaf [9])","N: redroot pigweed, herbicidal effect rating (redroot pigweed [10])","O: lambsquarters, herbicidal effect rating (lambsquarters [11])","P: chickweed, herbicidal effect rating (chickweed [12])","R: persian speedwell, herbicidal effect rating (persian speedwell [13])",herbicidal effect on F: southern crabgrass (criteria 0-5) (southern crabgrass [14]),herbicidal effect on G: green foxtail (criteria 0-5) (green foxtail [15]),also measured
COc1cc(F)ccc1-c1sc2ccc(NS(C)(=O)=O)cc2c1-c1c(O)c(C)nn(C)c1=O [2-183],2 (Herbicidal rate of 20% or more and less than 40%),0 (Herbicidal rate of 5% or less (almost no effect)),0 (Herbicidal rate of 5% or less (almost no effect)),4 (Herbicidal rate of 70% or more and less than 90%),3 (Herbicidal rate of 40% or more and less than 70%),0 (Herbicidal rate of 5% or less (almost no effect)),0 (Herbicidal rate of 5% or less (almost no effect)),0 (Herbicidal rate of 5% or less (almost no effect)),0 (Herbicidal rate of 5% or less (almost no effect)),0 (Herbicidal rate of 5% or less (almost no effect)),0 (Herbicidal rate of 5% or less (almost no effect)),0 (Herbicidal rate of 5% or less (almost no effect)),0 (Herbicidal rate of 5% or less (almost no effect)),0 (Herbicidal rate of 5% or less (almost no effect)),0 (Herbicidal rate of 5% or less (almost no effect)),0 (Herbicidal rate of 5% or less (almost no effect)),3 (Herbicidal rate of 40% or more and less than 70%),3 (Herbicidal rate of 40% or more and less than 70%),0 (Herbicidal rate of 5% or less (almost no effect)),0 (Herbicidal rate of 5% or less (almost no effect)),herbicidal effect on H: barnyard grass (criteria 0-5) (barnyard grass [16]): 0 (Herbicidal rate of 5% or less (almost no effect)); herbicidal effect on I: wild oat (criteria 0-5) (wild oat [17]): 0 (Herbicidal rate of 5% or less (almost no effect)); herbicidal effect on J: blackgrass (criteria 0-5) (blackgrass [18]): 4 (Herbicidal rate of 70% or more and less than 90%); herbicidal effect on K: Italian ryegrass (criteria 0-5) (Italian ryegrass [19]): 0 (Herbicidal rate of 5% or less (almost no effect)); herbicidal effect on L: windgrass (criteria 0-5) (windgrass [20]): 3 (Herbicidal rate of 40% or more and less than 70%); herbicidal effect on M: velvetleaf (criteria 0-5) (velvetleaf [21]): 1 (Herbicidal rate of 5% or more and less than 20%); herbicidal effect on N: redroot pigweed (criteria 0-5) (redroot pigweed [22]): 1 (Herbicidal rate of 5% or more and less than 20%); herbicidal effect on O: lambsquarters (criteria 0-5) (lambsquarters [23]): 3 (Herbicidal rate of 40% or more and less than 70%); herbicidal effect on P: chickweed (criteria 0-5) (chickweed [24]): 4 (Herbicidal rate of 70% or more and less than 90%); herbicidal effect on R: persian speedwell (criteria 0-5) (persian speedwell [25]): 4 (Herbicidal rate of 70% or more and less than 90%)
Cc1nn(C)c(=O)c(-c2c(-c3cccc(F)c3)sc3ccc(F)cc23)c1O [2-201],2 (Herbicidal rate of 20% or more and less than 40%),2 (Herbicidal rate of 20% or more and less than 40%),0 (Herbicidal rate of 5% or less (almost no effect)),5 (Herbicidal rate of 90% or more (almost completely withered)),4 (Herbicidal rate of 70% or more and less than 90%),5 (Herbicidal rate of 90% or more (almost completely withered)),3 (Herbicidal rate of 40% or more and less than 70%),3 (Herbicidal rate of 40% or more and less than 70%),4 (Herbicidal rate of 70% or more and less than 90%),0 (Herbicidal rate of 5% or less (almost no effect)),0 (Herbicidal rate of 5% or less (almost no effect)),2 (Herbicidal rate of 20% or more and less than 40%),0 (Herbicidal rate of 5% or less (almost no effect)),4 (Herbicidal rate of 70% or more and less than 90%),5 (Herbicidal rate of 90% or more (almost completely withered)),4 (Herbicidal rate of 70% or more and less than 90%),3 (Herbicidal rate of 40% or more and less than 70%),0 (Herbicidal rate of 5% or less (almost no effect)),4 (Herbicidal rate of 70% or more and less than 90%),4 (Herbicidal rate of 70% or more and less than 90%),herbicidal effect on H: barnyard grass (criteria 0-5) (barnyard grass [16]): 5 (Herbicidal rate of 90% or more (almost completely withered)); herbicidal effect on I: wild oat (criteria 0-5) (wild oat [17]): 0 (Herbicidal rate of 5% or less (almost no effect)); herbicidal effect on J: blackgrass (criteria 0-5) (blackgrass [18]): 0 (Herbicidal rate of 5% or less (almost no effect)); herbicidal effect on K: Italian ryegrass (criteria 0-5) (Italian ryegrass [19]): 4 (Herbicidal rate of 70% or more and less than 90%); herbicidal effect on L: windgrass (criteria 0-5) (windgrass [20]): 4 (Herbicidal rate of 70% or more and less than 90%); herbicidal effect on M: velvetleaf (criteria 0-5) (velvetleaf [21]): 5 (Herbicidal rate of 90% or more (almost completely withered)); herbicidal effect on N: redroot pigweed (criteria 0-5) (redroot pigweed [22]): 5 (Herbicidal rate of 90% or more (almost completely withered)); herbicidal effect on O: lambsquarters (criteria 0-5) (lambsquarters [23]): 5 (Herbicidal rate of 90% or more (almost completely withered)); herbicidal effect on P: chickweed (criteria 0-5) (chickweed [24]): 5 (Herbicidal rate of 90% or more (almost completely withered)); herbicidal effect on R: persian speedwell (criteria 0-5) (persian speedwell [25]): 5 (Herbicidal rate of 90% or more (almost completely withered))
